Measured values: ChEMBL document CHEMBL1126442 (Bioorg Med Chem Lett, 1992)

Experiments:
[1] = target: T1, Muscarinic acetylcholine receptor M1 (Homo sapiens, UniProt P11229); test: Dissociation constant for human Muscarinic acetylcholine receptor M1 was determined.
T1 sequence (P11229 whole entry): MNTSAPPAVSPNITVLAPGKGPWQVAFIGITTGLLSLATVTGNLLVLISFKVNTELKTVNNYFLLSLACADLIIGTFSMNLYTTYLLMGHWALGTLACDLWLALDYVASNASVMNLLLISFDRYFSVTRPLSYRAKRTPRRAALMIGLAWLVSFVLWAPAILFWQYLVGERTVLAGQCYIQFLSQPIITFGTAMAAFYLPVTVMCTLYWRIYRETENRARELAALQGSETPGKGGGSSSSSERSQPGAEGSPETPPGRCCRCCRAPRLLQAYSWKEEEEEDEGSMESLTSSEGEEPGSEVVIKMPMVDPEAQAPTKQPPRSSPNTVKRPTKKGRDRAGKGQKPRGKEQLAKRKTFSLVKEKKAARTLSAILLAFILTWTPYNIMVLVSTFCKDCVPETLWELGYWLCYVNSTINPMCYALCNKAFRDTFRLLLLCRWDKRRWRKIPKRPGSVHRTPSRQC

[2] = target: T2, Muscarinic acetylcholine receptor M2 (Homo sapiens, UniProt P08172); test: Dissociation constant for human Muscarinic acetylcholine receptor M2 was determined.
T2 sequence (P08172 whole entry): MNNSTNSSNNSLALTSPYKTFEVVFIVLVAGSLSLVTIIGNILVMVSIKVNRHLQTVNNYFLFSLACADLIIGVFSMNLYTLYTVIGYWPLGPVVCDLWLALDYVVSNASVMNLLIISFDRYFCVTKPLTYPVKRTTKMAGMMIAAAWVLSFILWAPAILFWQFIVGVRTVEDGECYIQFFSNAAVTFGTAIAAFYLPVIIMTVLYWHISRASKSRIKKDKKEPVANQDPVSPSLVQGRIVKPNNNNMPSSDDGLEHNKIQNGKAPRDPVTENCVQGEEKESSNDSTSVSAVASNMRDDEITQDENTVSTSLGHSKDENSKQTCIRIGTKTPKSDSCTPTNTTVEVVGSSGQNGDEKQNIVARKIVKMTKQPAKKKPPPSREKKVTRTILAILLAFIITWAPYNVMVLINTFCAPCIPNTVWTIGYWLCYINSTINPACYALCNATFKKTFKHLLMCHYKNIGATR

[3] = target: T3, Muscarinic acetylcholine receptor M2 (Rattus norvegicus, UniProt P10980); test: Dissociation constant for the blocking of brainstem muscarinic M2 receptor was reported.; type: tissue-based
T3 sequence (P10980 whole entry): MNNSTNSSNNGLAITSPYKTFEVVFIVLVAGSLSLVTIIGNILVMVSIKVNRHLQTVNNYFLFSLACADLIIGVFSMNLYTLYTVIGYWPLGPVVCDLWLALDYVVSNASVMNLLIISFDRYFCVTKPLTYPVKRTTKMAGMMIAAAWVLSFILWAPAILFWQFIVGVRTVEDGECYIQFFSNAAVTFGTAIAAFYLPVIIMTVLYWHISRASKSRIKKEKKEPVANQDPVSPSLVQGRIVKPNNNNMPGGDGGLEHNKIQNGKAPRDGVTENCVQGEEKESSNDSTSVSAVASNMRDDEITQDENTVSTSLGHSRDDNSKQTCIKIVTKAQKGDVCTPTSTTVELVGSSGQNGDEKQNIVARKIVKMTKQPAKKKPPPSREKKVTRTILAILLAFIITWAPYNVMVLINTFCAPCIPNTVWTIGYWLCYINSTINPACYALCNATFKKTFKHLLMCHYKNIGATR

[4] = target: T4, Muscarinic acetylcholine receptor M4 (Mus musculus, UniProt P32211); test: Potency assessed to inhibit cAMP levels in N1E-115 neuroblastoma cells, for blocking oxotremorine-M in functional assay for Muscarinic acetylcholine receptor M4; type: cell-based
T4 sequence (P32211 whole entry): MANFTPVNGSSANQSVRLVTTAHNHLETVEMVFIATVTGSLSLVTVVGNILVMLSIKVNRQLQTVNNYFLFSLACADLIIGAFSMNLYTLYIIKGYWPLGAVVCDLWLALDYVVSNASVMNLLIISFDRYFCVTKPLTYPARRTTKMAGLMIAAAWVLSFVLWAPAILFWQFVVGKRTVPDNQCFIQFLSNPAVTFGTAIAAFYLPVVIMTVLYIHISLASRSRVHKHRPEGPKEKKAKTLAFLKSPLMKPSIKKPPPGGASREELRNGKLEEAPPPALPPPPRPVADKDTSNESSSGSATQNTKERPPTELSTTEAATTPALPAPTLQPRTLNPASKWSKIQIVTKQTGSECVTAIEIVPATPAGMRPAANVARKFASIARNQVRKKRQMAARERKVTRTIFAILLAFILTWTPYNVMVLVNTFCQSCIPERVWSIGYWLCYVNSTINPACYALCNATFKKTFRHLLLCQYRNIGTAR

[5] = target: T5, Muscarinic acetylcholine receptor M4 (Rattus norvegicus, UniProt P08485); test: Potency assessed to inhibit cAMP levels in rat striatum, for blocking oxotremorine-M, in functional assay for Muscarinic acetylcholine receptor M4; type: tissue-based
T5 sequence (P08485 whole entry): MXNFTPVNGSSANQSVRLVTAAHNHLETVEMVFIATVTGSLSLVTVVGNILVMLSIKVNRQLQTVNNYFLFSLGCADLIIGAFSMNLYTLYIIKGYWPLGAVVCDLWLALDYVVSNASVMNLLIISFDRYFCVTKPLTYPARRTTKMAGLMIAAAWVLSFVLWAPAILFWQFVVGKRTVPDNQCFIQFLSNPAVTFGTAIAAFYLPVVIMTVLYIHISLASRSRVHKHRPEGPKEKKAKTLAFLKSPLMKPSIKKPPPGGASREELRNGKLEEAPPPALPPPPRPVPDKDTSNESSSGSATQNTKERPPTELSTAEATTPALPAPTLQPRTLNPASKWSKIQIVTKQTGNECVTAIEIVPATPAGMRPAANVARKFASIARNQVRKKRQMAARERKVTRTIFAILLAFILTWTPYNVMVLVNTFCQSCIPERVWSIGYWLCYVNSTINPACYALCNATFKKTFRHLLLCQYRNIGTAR

[6] = target: T3, Muscarinic acetylcholine receptor M2; test: Dissociation constant for the blocking of cardiac muscarinic M2 receptor was reported.; design: species or system Heart
[7] = target: T3, Muscarinic acetylcholine receptor M2; test: Dissociation constant for the blocking of heart muscarinic M2 receptor was reported.
[8] = species: Rattus norvegicus; test: Ability to reverse oxotremorine-M mediated inhibition of evoked acetylcholine release from hippocampal tissue; type: functional, Hippocampus

| Kd [1] [nM] | Kd [2] [nM] | Compound | Kd [3] [nM] | Kd [4] [nM] | Kd [5] [nM] | Kd [6] [nM] | Kd [7] [nM] | Kd [8] [nM] |
| --- | --- | --- | --- | --- | --- | --- | --- | --- |
| 9700 | 4400 | C[C@@H]1OC(=O)C[C@H]1C/C=C/[C@H]1CCCCN1C | 1210 |  |  |  |  |  |
|  |  | C[C@@H]1OC(=O)[C@H]2C[C@H]3CCCC[C@@H]3[C@@H](/C=C/[C@H]3CCC[C@H](C)N3C)[C@@H]12 [HIMBACINE] | 4.6 | 11.3 | 5.4 | 3 | 6.9 | 8.5 |
